Measured values from article PMC6284401 (Journal of peptide science : an official publication of the …, 2018).

Legend:
MCF-7 cells = test: Confocal microscopy binding, MCF-7 cells; format: cell-based; settings: 0.5 μM, 30 min
[1] = human serum, HPLC AUC vs time
p-HER2 = test: Western blot of total and phosphorylated HER2, BT-474; format: cell-based; settings: BT-474 cells, 1.5 μM, 36 h
[2] = mouse, in vivo
[3] = cited from earlier work

## N=C(N)NCCC[C@@H]1NC(=O)[C@H]2CCCN2C(=O)[C@@H]2CCCN2C(=O)[C@H](CCCCNC(=O)c2ccc3c(c2)C2(OC3=O)c3ccc(O)cc3Oc3cc(O)ccc32)NC(=O)C[C@H](c2cccc3ccccc23)NC(=O)[C@H](Cc2ccccc2)NC(=O)[C@H](CC(=O)O)NC(=O)[C@H](CC(=O)O)NC(=O)[C@H](Cc2ccccc2)NC(=O)C[C@H](c2cccc3ccccc23)NC1=O [compound 44, Cyclo(PpR-(R)Anapa-FDDF-(R)Anapa-K-(6-FAM)]
MCF-7 cells
  Binding to cells by confocal microscopy (green fluorescence): does not bind significantly

## N=C(N)NCCC[C@H]1NC(=O)C[C@H](c2cccc3ccccc23)NC(=O)[C@@H](Cc2ccccc2)NC(=O)[C@@H](CC(=O)O)NC(=O)[C@H]2CCCN2C(=O)[C@@H]2CCCN2C(=O)[C@@H](CCCNC(=N)N)NC(=O)C[C@H](c2cccc3ccccc23)NC(=O)[C@@H](Cc2ccccc2)NC(=O)[C@@H](CC(=O)O)NC1=O [compound 32, Cyclo(Ppdf-(R)Anapa-rdf-(R)Anapa-r]
[1]
  Time stable in serum: 48 h
p-HER2
  Level of p-HER2 (Western blot): decreased the level of p-HER2
  Total-HER2 protein levels (Western blot): did not show any significant effect
[2]
  Compound detected after 12 h compared to the 15 min: ~70%

## Cyclo(PpR-((R) Anapa)FDDF-((R) Anapa)R [compound 18]
[3]
  Stability in serum in vitro: more than 48 h
